Source: EP1655289A1, “Quinazoline derivatives, process for their preparation, their use as antimitotics and pharmaceutical compositions comprising said derivatives” (EMBL, priority 2004, dated 2006)
Like-named read-outs stand apart in the source and are kept apart here.

Assays:
HeLa cells [1] = assay: FACS cell cycle analysis of HeLa cells after 18 h inhibitor treatment; assay type: cell-based, human; conditions: for cells in G2/M: FACS (control 23%)
Description: (§1) Hela cells were cultured in DMEM medium supplemented with 10 % (v/v) FCS to 60 % confluency. The culture medium was then exchanged by fresh medium containing different inhibitor or DMSO and the cells placed at 37 °C in 5 % CO2 for 18 h. The final volume of inhibitor dissolved in DMSO in the medium was always equal to or less than 0.1 % (v/v)For wash out experiments, cells were treated as described above. After 18 h cells were washed with phosphate buffered saline (PBS), covered with fresh medium and cultured for another 24 h at 37 °C in 5 % CO2.
HeLa cells were incubated for 18 hours in medium supplemented with various concentrations of either of the three compounds, monastrol or DMSO. Cells were then fixed and analyzed by FACS and immunofluorescence.
(§2) For FACS analysis, cells were scraped off the culture plate after inhibitor treatment or after wash-out and collected by centrifugation in a Heraeus Megafuge 1.0R at 1200 rpm for 5 min. The cell pellet was washed once with 5 ml PBS and then resuspended in 0.5 ml PBS. The cells were fixed by addition of 4 ml 70 % (v/v) ethanol and incubation overnight at -20 °C. Fixed cells were centrifuges at 1200 rpm for 5 min, washed with 5 ml PBS, and resuspended in 1ml PI solution (10 µg/ml propidium iodide, 100 µg/ml RNAse A, 0.05 % Triton X100 in PBS). After 30 min at 37 °C in the dark, cells were analyzed by fluorescence-activated cell sorting (FACS).

Xenopus egg extract = assay: Spindle assembly in Xenopus egg extracts; design: species or system Xenopus laevis
Description: Cytostatic factor (CSF)-arrested Xenopus laevis egg extracts were prepared as described previously. Spindle assembly experiments were performed in cycled extracts with sperm nuclei and tetramethylrhodamine labelled tubulin as described. 1 % (v/v) (or less) inhibitor dissolved in DMSO was added to the extract prior to spindle assembly. As control 1% DMSO was added to the extract. Spindles were fixed and centrifuged onto coverslips. The DNA was stained with DAPI. Structures were then visualized by epi-fluorescence microscopy (Zeiss Axiovert 135 equipped with a Roper CoolSnap HQ camera). Spindles and aberrant microtubule structures were then counted.

Eg5 = target: T1, Eg5 (Xenopus laevis, UniProt P28025); assay: Microtubule-stimulated ATPase activity of Eg5 (EnzChek Phosphate Assay), IC50 determination; assay type: biochemical; conditions: for potency as inhibitor of Eg5 compared to monastrol: ratio of IC50 values versus monastrol
T1 construct: Xenopus laevis Eg5 corresponding to amino acids 1 to 487; made in house; host or cells: E. coli M15(pREP4)
T1 sequence (P28025 1-487): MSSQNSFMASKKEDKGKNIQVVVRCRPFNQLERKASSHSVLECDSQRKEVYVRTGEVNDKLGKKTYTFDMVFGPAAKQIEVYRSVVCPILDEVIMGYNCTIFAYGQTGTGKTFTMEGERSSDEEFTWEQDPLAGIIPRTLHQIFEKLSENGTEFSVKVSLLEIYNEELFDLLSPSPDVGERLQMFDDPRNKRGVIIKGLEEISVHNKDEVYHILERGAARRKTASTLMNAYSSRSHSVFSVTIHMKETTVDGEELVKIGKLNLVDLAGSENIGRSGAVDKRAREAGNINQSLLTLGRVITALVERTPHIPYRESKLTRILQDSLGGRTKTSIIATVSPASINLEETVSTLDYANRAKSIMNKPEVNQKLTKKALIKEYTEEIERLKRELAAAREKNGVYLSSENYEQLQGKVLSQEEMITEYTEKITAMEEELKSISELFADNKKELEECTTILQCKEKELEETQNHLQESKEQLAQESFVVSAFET
Description: The protein was expressed in E. coli M15(pREP4) for 5 h at 18 °C in LB containing 1 mM isopropylthio-β-D-galactopyranoside (IPTG), 100 µg/ml ampicillin, 25 µg/ml kanamycin, and 2% (v/v) ethanol. The harvested cells were lysed in buffer A (50 mM KPi, 100 mM NaCl, 0.1 mM MgATP protease inhibitors (Roche), pH 7.0) with 5 mM mercaptoethanol (ME). The clarified lysate was loaded onto a HIS-Select Cobalt Affi Gel column (Sigma), washed with buffer A supplemented with 10 mM imidazole, 2 mM ME, 10 % (w/v) glycerol, and eluted with 150 mM imidazole, 50 mM KCI, 10 % (w/v) glycerol, 10 mM ME, pH 7.3. The buffer was exchanged to 50 mM 3-(N-morpholino)propanesulfonic acid/KOH, 50 mM KCI, 1 mM MgCl2, 1 mM EGTA, 10 mM ME, 20 % (w/v) glycerol, pH 7.0 by dialysis. The protein concentration was adjusted to 2 mg/ml (measured by a Bradford assay using bovine serum albumin (BSA) as standard). Eg5487H was frozen in liquid ethane and stored in liquid nitrogen.
Polymerized microtubules were then stabilized by addition of 1 µl 10 mM paclitaxel (Sigma) in DMSO and incubated at 37 °C for another 20 minutes. The suspension was centrifuged at 70000 rpm at 30 °C for 30 minutes in a TLA100 rotor (Beckman). The resulting microtubule pellet was resuspended in 60 µl assay buffer (10 mM imidazole/acetate, 5 mM K-acetate, 2 mM EGTA and 4 mM Mg-acetate, pH 6.8.) supplemented with 20 µM paclitaxel at 37 °C. This microtubule suspension was stored at room temperature. The final concentration was 80 µM polymerized tubulin as determined by Bradford using BSA as a standard.
Final concentrations were 40 nM Eg5487H, 4 µM microtubules (tubulin dimer concentration as determined by Bradford using BSA as standard), and 1 mM MgATP. The ATPase activity was measured as an increase of absorbance at 365 nm within 2 h at room temperature. 1 % (v/v) inhibitor in DMSO at different concentrations (or 1 % (v/v) DMSO as a control) was added at the start of the experiment. At least 4 measurements were performed per condition and the results were then averaged. The microtubule-stimulated activity of Eg5487H was obtained by subtracting background activity (measured with microtubules only in the absence of Eg5487H) from measurements containing Eg5487H and microtubules. The IC50 was determined by assuming non-competitive enzyme inhibition and fitting the theoretically expected dependence of the enzym activity on the inhibitor concentration to the experimental microtubule-stimulated ATPase activities. The equation used for the fit was v = vmax * IC50 / ([inhibitor] + IC50) + vres with v being the measured relative ATPase rate, vmax being the maximum ATPase rate and vres being a residual activity at high inhibitor concentration.

HeLa cells [2] = assay: Wash-out experiment in HeLa cells (18 h treatment, 24 h fresh medium); assay type: cell-based, human; conditions: 24 h in fresh medium
Description: as §1, §2
One useful characteristic of monastrol is that is non-toxic for the cells when applied transiently; once washed out cells resume mitosis. […]

[3] = 10 µM added to Xenopus egg extract
[4] = microtubule-stimulated ATPase activity, 40 nM Eg5487H, 4 µM microtubules, 1 mM MgATP, read-out: IC50

Row | Compound | cells in G2/M (HeLa cells [1]; 10 µM) [%] | bipolar spindle formation (Xenopus egg extract; [3]) | IC50 (Eg5; [4]) [µM] | potency as inhibitor of Eg5 compared to monastrol (Eg5) | cell cycle distribution (HeLa cells [1]; 0.1 µM, FACS) | cells in G2/M (HeLa cells [1]; 0.5 µM) [%] | cells in G2/M (HeLa cells [1]; 1 µM) [%] | bipolar spindle formation (Xenopus egg extract; 1 µM added to Xenopus egg extract) | IC50 (Eg5) [µM] | cells in G2/M (HeLa cells [1]; 100 µM) [%] | toxicity for the cells when applied transiently (HeLa cells [2])
1 | O=C1CCCC2=C1C(c1cccc(O)c1)NC(=S)N2 (stereo not drawn) [Example 1, 4-(3-Hydroxyphenyl)-5-oxo-3,4,5,6,7,8-hexahydroquinazoline-2(1H)-thione] | 77 | inhibited bipolar spindle formation | 2 | more than ten times more potent |  |  |  |  |  |  | 
2 | Oc1cccc(C2NC(=S)NC3=C2C(O)CCC3)c1 (stereo not drawn) [Example 3, 4-(3-Hydroxyphenyl)-5-hydroxy-3,4,5,6,7,8-hexahydroquinazoline-2(1H)-thione] | 77 | inhibited bipolar spindle formation | 2 | more than ten times more potent |  |  |  |  |  |  | 
3 | CC1(C)CC(=O)C2=C(C1)NC(=S)NC2c1cccc(O)c1 (stereo not drawn) [Example 2, 7,7-Dimethyl-4-(3-hydroxyphenyl)-5-oxo-3,4,5,6,7,8-hexahydroquinazoline-2(1H)-thione] |  |  |  | more than 100 times | No cell cycle distribution abnormalities | 47 | 75 | inhibited bipolar spindle formation | 0.2 |  | 
4 | CCOC(=O)C1=C(C)NC(=S)NC1c1cccc(O)c1 (stereo not drawn) [monastrol, 4-(3-hydroxyphenyl)-5-ethoxycarbonyl-6-methyl-3,4-dihydropyrimidin-2(1H), reference compound] | 31 |  |  |  |  |  |  |  | 30 | 74 | non-toxic
